From patent US20110076293A1, “TRIPTOLIDE DERIVATIVES FOR MODULATION OF APOPTOSIS AND IMMUNOSUPPRESSION” (priority 2002, published 2011)
pIC50: −log10 of the molar value.

Tested on: IL-2 production in Jurkat human T lymphocyte cells
Assay: IL-2 production assay for activity of compounds incubated with human serum
[1] = Table 7, Jurkat cells (48 hrs), 0.001 nM
[2] = Table 7, Jurkat cells (48 hrs), 0.01 nM
[3] = Table 7, Jurkat cells (48 hrs), 0.1 nM
[4] = Table 7, Jurkat cells (48 hrs), 1 nM
[5] = Table 7, Jurkat cells (48 hrs), 10 nM
[6] = Table 7, Jurkat cells (48 hrs), 100 nM
[7] = Table 7, Jurkat cells (48 hrs), 1000 nM
[8] = Table 7, Jurkat cells (48 hrs), 10000 nM
[9] = Table 8, Jurkat cells, 0.0001 nM
[10] = Table 8, Jurkat cells, 0.001 nM
[11] = Table 8, Jurkat cells, 10000 nM

With `CC(C)[C@]12O[C@H]1[C@@H]1O[C@]13[C@]1(O[C@H]1C[C@H]1C4=C(CC[C@@]13C)C(=O)OC4)[C@@H]2OC(=O)CCC(=O)O` [PG490-88, triptolide-14-succinate, reference compound] the pIC50 (IL-2 production in Jurkat cells after incubation with pooled human serum for 48 hours at 37° C.) was 8.05, the “IL-2 pg/mL at given concentration (nM)” value [1] was 776.4 pg/mL and the “IL-2 pg/mL at given concentration (nM)” value [2] was 771.0 pg/mL. The “IL-2 pg/mL at given concentration (nM)” value [3] was 809.5 pg/mL, the “IL-2 pg/mL at given concentration (nM)” value [4] was 732.4 pg/mL and the “IL-2 pg/mL at given concentration (nM)” value [5] was 605.1 pg/mL. For the same molecule, the “IL-2 pg/mL at given concentration (nM)” value [6] was 317.5 pg/mL, the “IL-2 pg/mL at given concentration (nM)” value [7] was 65.9 pg/mL and the “IL-2 pg/mL at given concentration (nM)” value [8] was 58.2 pg/mL. For the same molecule, the “IL-2 pg/mL at given concentration (nM)” value [9] was 96.1 pg/mL, the “IL-2 pg/mL at given concentration (nM)” value [10] was 83.0 pg/mL and the “IL-2 pg/mL at given concentration (nM)” value (Table 8, Jurkat cells, 0.01 nM) was 87.5 pg/mL. The “IL-2 pg/mL at given concentration (nM)” value (Table 8, Jurkat cells, 0.1 nM) was 86.3 pg/mL, the “IL-2 pg/mL at given concentration (nM)” value (Table 8, Jurkat cells, 1 nM) was 88.2 pg/mL and the “IL-2 pg/mL at given concentration (nM)” value (Table 8, Jurkat cells, 10 nM) was 42.7 pg/mL. For the same molecule, the “IL-2 pg/mL at given concentration (nM)” value (Table 8, Jurkat cells, 100 nM) was 14.0 pg/mL, the “IL-2 pg/mL at given concentration (nM)” value (Table 8, Jurkat cells, 1000 nM) was 8.4 pg/mL and the “IL-2 pg/mL at given concentration (nM)” value [11] was 23.8 pg/mL. The “Conversion (%)” value (percent of the IC50 value produced by triptolide (PG490) in the same experiment, human serum 48 hours) was 51%.

With `CCNC(=O)O[C@@H]1[C@@]2(C(C)C)O[C@H]2[C@@H]2O[C@]23[C@]12O[C@H]2C[C@H]1C2=C(CC[C@@]13C)C(=O)OC2` [PG666, Triptolide 14-Ethyl Carbamate] the “concentration for equal IL-2 inhibitory activity relative to the active concentration of PG490” value was 10-30 times, the “bioactivity in IL-2 inhibition assays (in words)” value (FIGS. 4-5) was “some level of bioactivity” and the “IL-2 pg/mL at given concentration (nM)” value [1] was 844.6 pg/mL. The “IL-2 pg/mL at given concentration (nM)” value [2] was 799.8 pg/mL, the “IL-2 pg/mL at given concentration (nM)” value [3] was 860.6 pg/mL and the “IL-2 pg/mL at given concentration (nM)” value [4] was 773.0 pg/mL. The “IL-2 pg/mL at given concentration (nM)” value [5] was 819.1 pg/mL, the “IL-2 pg/mL at given concentration (nM)” value [6] was 528.0 pg/mL and the “IL-2 pg/mL at given concentration (nM)” value [7] was 180.1 pg/mL. For the same molecule, the “IL-2 pg/mL at given concentration (nM)” value [8] was 63.5 pg/mL, the “IL-2 pg/mL at given concentration (nM)” value [9] was 94.3 pg/mL and the “IL-2 pg/mL at given concentration (nM)” value [10] was 105.1 pg/mL. For the same molecule, the “IL-2 pg/mL at given concentration (nM)” value (Table 8, Jurkat cells, 0.01 nM) was 97.0 pg/mL, the “IL-2 pg/mL at given concentration (nM)” value (Table 8, Jurkat cells, 0.1 nM) was 92.8 pg/mL and the “IL-2 pg/mL at given concentration (nM)” value (Table 8, Jurkat cells, 1 nM) was 80.0 pg/mL. For the same molecule, the “IL-2 pg/mL at given concentration (nM)” value (Table 8, Jurkat cells, 10 nM) was 89.8 pg/mL, the “IL-2 pg/mL at given concentration (nM)” value (Table 8, Jurkat cells, 100 nM) was 33.3 pg/mL and the “IL-2 pg/mL at given concentration (nM)” value (Table 8, Jurkat cells, 1000 nM) was 10.0 pg/mL. For the same molecule, the “IL-2 pg/mL at given concentration (nM)” value [11] was 8.0 pg/mL.

With `CC(C)[C@]12O[C@H]1[C@@H]1O[C@]13[C@]1(O[C@H]1C[C@H]1C4=C(CC[C@@]13C)C(=O)OC4)[C@@H]2O` [PG490, Triptolide] the “IL-2 pg/mL at given concentration (nM)” value [1] was 929.7 pg/mL, the “IL-2 pg/mL at given concentration (nM)” value [2] was 908.6 pg/mL and the “IL-2 pg/mL at given concentration (nM)” value [3] was 937.8 pg/mL. The “IL-2 pg/mL at given concentration (nM)” value [4] was 835.2 pg/mL, the “IL-2 pg/mL at given concentration (nM)” value [5] was 556.1 pg/mL and the “IL-2 pg/mL at given concentration (nM)” value [6] was 120.7 pg/mL. The “IL-2 pg/mL at given concentration (nM)” value [7] was 62.9 pg/mL, the “IL-2 pg/mL at given concentration (nM)” value [8] was 59.2 pg/mL and the “IL-2 pg/mL at given concentration (nM)” value [9] was 80.0 pg/mL. For the same molecule, the “IL-2 pg/mL at given concentration (nM)” value [10] was 97.2 pg/mL, the “IL-2 pg/mL at given concentration (nM)” value (Table 8, Jurkat cells, 0.01 nM) was 83.2 pg/mL and the “IL-2 pg/mL at given concentration (nM)” value (Table 8, Jurkat cells, 0.1 nM) was 87.1 pg/mL. The “IL-2 pg/mL at given concentration (nM)” value (Table 8, Jurkat cells, 1 nM) was 75.7 pg/mL, the “IL-2 pg/mL at given concentration (nM)” value (Table 8, Jurkat cells, 10 nM) was 25.5 pg/mL and the “IL-2 pg/mL at given concentration (nM)” value (Table 8, Jurkat cells, 100 nM) was 17.8 pg/mL. The “IL-2 pg/mL at given concentration (nM)” value (Table 8, Jurkat cells, 1000 nM) was 12.9 pg/mL and the “IL-2 pg/mL at given concentration (nM)” value [11] was 22.3 pg/mL.
